Measurements from patent US8273774B2, “Phenoxypyridinylamide compounds” (AstraZeneca AB, priority 2008, dated 2012).

target: recombinant Human Phosphodiesterase B2 (PDE4B2) (Homo sapiens, UniProt Q07343); test: Human Phosphodiesterase B2 Radiometric Assay; type: biochemical; settings: 0.1 μg/mL recombinant PDE4B2; preincubated at 30 C for 30 min; [3H]cyclic AMP 8 nM, stopped after 20 min; yttrium silicate SPA beads; read-out: PDE4B2 pIC50 (converted)
Summary of the method: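 SPA read-out: product 5′AMP binds yttrium silicate beads (added with 18 mM ZnSO4 after 20 min) in preference to [3H]cAMP substrate, given at 8 nM final.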

Sequence of recombinant Human Phosphodiesterase B2 (PDE4B2) (Q07343 1-564 isoform Q07343-2): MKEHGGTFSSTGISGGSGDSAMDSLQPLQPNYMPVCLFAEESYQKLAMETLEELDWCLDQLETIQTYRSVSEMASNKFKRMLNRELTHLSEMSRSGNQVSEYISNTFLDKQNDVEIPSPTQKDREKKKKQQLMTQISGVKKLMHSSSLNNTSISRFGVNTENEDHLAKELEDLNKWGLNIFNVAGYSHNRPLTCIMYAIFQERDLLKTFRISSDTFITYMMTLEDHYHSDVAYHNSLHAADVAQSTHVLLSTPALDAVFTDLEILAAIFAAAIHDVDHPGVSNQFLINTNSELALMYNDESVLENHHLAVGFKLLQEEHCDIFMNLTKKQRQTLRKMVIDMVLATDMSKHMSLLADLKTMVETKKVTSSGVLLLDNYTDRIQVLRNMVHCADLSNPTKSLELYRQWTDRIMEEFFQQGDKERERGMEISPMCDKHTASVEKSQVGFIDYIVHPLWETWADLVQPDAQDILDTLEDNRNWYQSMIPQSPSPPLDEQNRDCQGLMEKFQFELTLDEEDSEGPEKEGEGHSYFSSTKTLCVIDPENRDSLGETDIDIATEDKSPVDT

Compound	IC50 [nM]
Cc1cc(C(=O)N[C@H]2CC[C@@H](NC(=O)c3cc(F)cnc3Oc3cccc(-c4cccc(CN5C[C@@H](C)N[C@@H](C)C5)c4)c3)CC2)nn1C [Example 72, N-((1s,4s)-4-(1,5-dimethyl-1H-pyrazole-3-carboxamido)cyclohexyl)-2-(3′-(((3S,5R)-3,5-dimethylpiperazin-1-yl)methyl)biphenyl-3-yloxy)-5-fluoronicotinamide]	0.0631
Cc1nc(C(=O)N[C@H]2CC[C@@H](NC(=O)c3cc(F)cnc3Oc3cccc(-c4ccc(CCCN5CCCC5)cc4)c3)CC2)cs1 [Example 73, N-((1s,4s)-4-(5-fluoro-2-(4′-(3-(pyrrolidin-1-yl)propyl)biphenyl-3-yloxy)nicotinamido)cyclohexyl)-2-methylthiazole-4-carboxamide]	0.0631
Cc1nc(C(=O)N[C@H]2CC[C@@H](NC(=O)c3cc(F)cnc3Oc3cccc(-c4ccc(CCCN5CCNCC5)cc4)c3)CC2)cs1 [Example 74, N-((1s,4s)-4-(5-fluoro-2-(4′-(3-(piperazin-1-yl)propyl)biphenyl-3-yloxy)nicotinamido)cyclohexyl)-2-methylthiazole-4-carboxamide]	0.0251
Cc1nc(C(=O)N[C@H]2CC[C@@H](NC(=O)c3cc(F)cnc3Oc3cccc(-c4ccc(CCCN5C[C@@H](C)N[C@@H](C)C5)cc4)c3)CC2)cs1 [Example 75, N-((1s,4s)-4-(2-(4′-(3-((3S,5R)-3,5-dimethylpiperazin-1-yl)propyl)biphenyl-3-yloxy)-5-fluoronicotinamido)cyclohexyl)-2-methylthiazole-4-carboxamide]	0.0316
CCc1nc(C(=O)N[C@H]2CC[C@@H](NC(=O)c3cc(F)cnc3Oc3cccc(-c4ccc(CN5C[C@@H](C)N[C@@H](C)C5)cc4)c3)CC2)cs1 [Example 76, N-((1s,4s)-4-(2-(4′-(((3S,5R)-3,5-dimethylpiperazin-1-yl)methyl)biphenyl-3-yloxy)-5-fluoronicotinamido)cyclohexyl)-2-ethylthiazole-4-carboxamide]	0.0631
Cc1cc(C(=O)N[C@H]2CC[C@@H](NC(=O)c3cc(F)cnc3Oc3cccc(-c4ccc(O)c(CN5CCN(C(C)C)CC5)c4)c3)CC2)nn1C [Example 77, N-((1s,4s)-4-(1,5-dimethyl-1H-pyrazole-3-carboxamido)cyclohexyl)-5-fluoro-2-(4′-hydroxy-3′-((4-isopropylpiperazin-1-yl)methyl)biphenyl-3-yloxy)nicotinamide]	0.0631
Cc1cc(C(=O)N[C@H]2CC[C@@H](NC(=O)c3cc(F)cnc3Oc3cccc(-c4cccc(CN5C[C@@H](C)N[C@@H](C)C5)c4O)c3)CC2)nn1C [Example 78, N-((1s,4s)-4-(1,5-dimethyl-1H-pyrazole-3-carboxamido)cyclohexyl)-2-(3′-(((3R,5S)-3,5-dimethylpiperazin-1-yl)methyl)-2′-hydroxybiphenyl-3-yloxy)-5-fluoronicotinamide]	0.0794
Cc1cc(C(=O)N[C@H]2CC[C@@H](NC(=O)c3cc(F)cnc3Oc3cccc(-c4ccc(CCCN5CCCC5)cc4)c3)CC2)nn1C [Example 79, N-((1s,4s)-4-(1,5-dimethyl-1H-pyrazole-3-carboxamido)cyclohexyl)-5-fluoro-2-(4′-(3-(pyrrolidin-1-yl)propyl)biphenyl-3-yloxy)nicotinamide]	0.0316
Cc1cc(C(=O)N[C@H]2CC[C@@H](NC(=O)c3cc(F)cnc3Oc3cccc(-c4ccc(CCCN5CCN(C)CC5)cc4)c3)CC2)nn1C [Example 80, N-((1s,4s)-4-(1,5-dimethyl-1H-pyrazole-3-carboxamido)cyclohexyl)-5-fluoro-2-(4′-(3-(4-methylpiperazin-1-yl)propyl)biphenyl-3-yloxy)nicotinamide]	0.0398
Cc1cc(C(=O)N[C@H]2CC[C@@H](NC(=O)c3cc(F)cnc3Oc3cccc(-c4ccc(CCCN5C[C@@H](C)N[C@@H](C)C5)cc4)c3)CC2)nn1C [Example 81, N-((1s,4s)-4-(1,5-dimethyl-1H-pyrazole-3-carboxamido)cyclohexyl)-2-(4′-(3-((3S,5R)-3,5-dimethylpiperazin-1-yl)propyl)biphenyl-3-yloxy)-5-fluoronicotinamide]	0.0316
Cc1cc(C(=O)N[C@H]2CC[C@@H](NC(=O)c3cc(F)cnc3Oc3cccc(-c4ccc(CCN5C[C@@H](C)N[C@@H](C)C5)cc4)c3)CC2)nn1C [Example 82, N-((1s,4s)-4-(1,5-dimethyl-1H-pyrazole-3-carboxamido)cyclohexyl)-2-(4′-(2-((3S,5R)-3,5-dimethylpiperazin-1-yl)ethyl)biphenyl-3-yloxy)-5-fluoronicotinamide]	0.02
C[C@@H]1CN(Cc2cc(-c3cccc(Oc4ncc(F)cc4C(=O)N[C@H]4CC[C@@H](NC(=O)c5cn6cc(F)ccc6n5)CC4)c3)ccc2O)C[C@H](C)N1 [Example 84, N-((1s,4s)-4-(2-(3′-(((3S,5R)-3,5-dimethylpiperazin-1-yl)methyl)-4′-hydroxybiphenyl-3-yloxy)-5-fluoronicotinamido)cyclohexyl)-6-fluoroimidazo[1,2-a]pyridine-2-carboxamide]	0.158
Cc1nc(C(=O)N[C@H]2CC[C@@H](NC(=O)c3cc(F)cnc3Oc3cccc(-c4ccc(CCN5C[C@@H](C)N[C@@H](C)C5)cc4)c3)CC2)cs1 [Example 86, N-((1s,4s)-4-(2-(4′-(2-((3S,5R)-3,5-dimethylpiperazin-1-yl)ethyl)biphenyl-3-yloxy)-5-fluoronicotinamido)cyclohexyl)-2-methylthiazole-4-carboxamide]	0.0316
Cc1nc(C(=O)N[C@H]2CC[C@@H](NC(=O)c3cc(F)cnc3Oc3cccc(-c4ccc(CCN5CCCN(C)CC5)cc4)c3)CC2)cs1 [Example 87, N-((1s,4s)-4-(5-fluoro-2-(4′-(2-(4-methyl-1,4-diazepan-1-yl)ethyl)biphenyl-3-yloxy)nicotinamido)cyclohexyl)-2-methylthiazole-4-carboxamide]	0.0251
Cc1csc(C(=O)N[C@H]2CC[C@@H](NC(=O)c3cc(F)cnc3Oc3cccc(-c4ccc(O)c(CN5C[C@@H](C)N[C@@H](C)C5)c4)c3)CC2)n1 [Example 88, N-((1s,4s)-4-(2-(3′-(((3S,5R)-3,5-dimethylpiperazin-1-yl)methyl)-4′-hydroxybiphenyl-3-yloxy)-5-fluoronicotinamido)cyclohexyl)-4-methylthiazole-2-carboxamide]	0.0316
C[C@@H]1CN(Cc2cc(-c3cccc(Oc4ncc(F)cc4C(=O)N[C@H]4CC[C@@H](NC(=O)c5cn6c(n5)CCCC6)CC4)c3)ccc2O)C[C@H](C)N1 [Example 91, N-((1s,4s)-4-(2-(3′-(((3S,5R)-3,5-dimethylpiperazin-1-yl)methyl)-4′-hydroxybiphenyl-3-yloxy)-5-fluoronicotinamido)cyclohexyl)-5,6,7,8-tetrahydroimidazo[1,2-a]pyridine-2-carboxamide]	0.251

Results, then the compound that gave them:

IC50 [nM]	Compound
0.0251	Cc1cc(C(=O)N[C@H]2CC[C@@H](NC(=O)c3cc(F)cnc3Oc3cccc(-c4ccc(CCN5CCN(C(C)C)CC5)cc4)c3)CC2)nn1C [Example 83, N-((1s,4s)-4-(1,5-dimethyl-1H-pyrazole-3-carboxamido)cyclohexyl)-5-fluoro-2-(4′-(2-(4-isopropylpiperazin-1-yl)ethyl)biphenyl-3-yloxy)nicotinamide]
0.0631	Cc1cccc2nc(C(=O)N[C@H]3CC[C@@H](NC(=O)c4cc(F)cnc4Oc4cccc(-c5ccc(O)c(CN6C[C@@H](C)N[C@@H](C)C6)c5)c4)CC3)cn12 [Example 85, N-((1s,4s)-4-(2-(3′-(((3S,5R)-3,5-dimethylpiperazin-1-yl)methyl)-4′-hydroxybiphenyl-3-yloxy)-5-fluoronicotinamido)cyclohexyl)-5-methylimidazo[1,2-a]pyridine-2-carboxamide]
0.0794	Cc1cccc(C(=O)N[C@H]2CC[C@@H](NC(=O)c3cc(F)cnc3Oc3cccc(-c4ccc(O)c(CN5C[C@@H](C)N[C@@H](C)C5)c4)c3)CC2)n1 [Example 89, N-((1s,4s)-4-(2-(3′-(((3S,5R)-3,5-dimethylpiperazin-1-yl)methyl)-4′-hydroxybiphenyl-3-yloxy)-5-fluoronicotinamido)cyclohexyl)-6-methylpicolinamide]
0.2	CC(C)c1nc(C(=O)N[C@H]2CC[C@@H](NC(=O)c3cc(F)cnc3Oc3cccc(-c4ccc(O)c(CN5C[C@@H](C)N[C@@H](C)C5)c4)c3)CC2)cs1 [Example 90, N-((1s,4s)-4-(2-(3′-(((3S,5R)-3,5-dimethylpiperazin-1-yl)methyl)-4′-hydroxybiphenyl-3-yloxy)-5-fluoronicotinamido)cyclohexyl)-2-isopropylthiazole-4-carboxamide]
0.126	C[C@@H]1CN(Cc2cc(-c3cccc(Oc4ncc(F)cc4C(=O)N[C@H]4CC[C@@H](NC(=O)c5cc(C(F)(F)F)n(C)n5)CC4)c3)ccc2O)C[C@H](C)N1 [Example 92, 2-(3′-(((3S,5R)-3,5-dimethylpiperazin-1-yl)methyl)-4′-hydroxybiphenyl-3-yloxy)-5-fluoro-N-((1s,4s)-4-(1-methyl-5-(trifluoromethyl)-1H-pyrazole-3-carboxamido)cyclohexyl)nicotinamide]
0.1	Cc1cccc2nc(C(=O)N[C@H]3CC[C@@H](NC(=O)c4cc(F)cnc4Oc4cccc(-c5ccc(CCCN6CCNCC6)cc5)c4)CC3)cn12 [Example 93, N-((1s,4s)-4-(5-fluoro-2-(4′-(3-(piperazin-1-yl)propyl)biphenyl-3-yloxy)nicotinamido)cyclohexyl)-5-methylimidazo[1,2-a]pyridine-2-carboxamide]
0.0631	C[C@@H]1CN(Cc2cc(-c3cccc(Oc4ncc(F)cc4C(=O)N[C@H]4CC[C@@H](NC(=O)c5cccc6[nH]cnc56)CC4)c3)ccc2O)C[C@H](C)N1 [Example 94, N-((1s,4s)-4-(2-(3′-(((3S,5R)-3,5-dimethylpiperazin-1-yl)methyl)-4′-hydroxybiphenyl-3-yloxy)-5-fluoronicotinamido)cyclohexyl)-1H-benzo[d]imidazole-4-carboxamide]
